Patent publication US9206229B2, “Bortezomib esters and formulations thereof” (CHEMI S.P.A., priority 2012, dated 2015)
Where two headings read alike, the source gives them in different places.

Experiments:
[1] = Stability tests of (5+5) bis bortezomib tartrate III in solid form (HPLC purity); assay type: physicochemical
Experimental: (5+5) Bis-bortezomib tartrate III, prepared as described in example 2, and the solid formulations containing (5+5) bis-bortezomib tartrate III, prepared as described in examples 3 and 4, were put into glass vials with screw plug and hermetic closure and undergone stability tests under the following conditions: […]
temperature 25° C. and 60% relative humidity temperature 40° C. and 75% relative humidity
The HPLC method used for the purity analysis was the following:
• UV Detector: SPD 10AVP • auto-sampler: SIL-ADVP Wavelength: 270 nm Column: Biobasic-18-Peek Bio-inert • length: 250 mm • I.D.: 2.1 mm • Particle size: 5 μm • (thermo scientific Cat.N.72105-252168 or equivalent) Injection: 3 μl Column temperature: room Sampler temperature: room Flow rate: 0.3 ml/min Mobile phase: eluent A: 95% gradient • Eluent B: 5% Analysis time: 60 minutes Eluent A: 0.1% v/v formic acid in water for HPLC Eluent B: 0.1% v/v formic acid in acetonitrile for gradient Diluent: acetonitrile:water for HPLC=80:20 Blank: diluent Gradient program:
Weigh about 50 mg sample and transfer the substance into a 100 ml flask. Dissolve and bring to volume with diluent. Sonicate up to complete dissolution (analyte content about 0.5 mg/ml).
Calculate the percentage of each known and unknown impurity as percentage area by using the following formula (peaks of the blank and peaks with area <0.05% to be ignored).
[formula] Axc: peak area of the impurity in the sample Atot: total area of the peaks of the chromatogram Purity(A%)=100−Σ1Imp (i) The peak corresponding to bortezomib is eluted at 28 minutes±2.
In the following tables the data obtained from the stability tests after two and four weeks are reported.

[2] = Stability tests of powders stored at 40° C. for months (examples 12, 14, 17), HPLC purity; assay type: physicochemical; details: powder
Experimental: Samples of the powder obtained in example 11 were stored in glass vials with screw cap and hermetic closure and undergone stability tests at 40° C. and 75% relative humidity. Their purity was checked during the time. In the following table the purity data of the samples under stability test obtained by using the HPLC method described in example 9 are reported.
Samples of the powder obtained in example 13 were stored in glass vials with screw cap and hermetic closure and undergone stability tests at 40° C. and 75% relative humidity. In the following table the purity data obtained by using the HPLC method described in example 9 are reported.
In the following table the data of the HPLC purity analysis of the powder at time 0 and after 1 month, 2 months and 3 months of storage in glass vials with screw plug and hermetic closure at 40° C. are reported.

[3] = cited from earlier work
[4] = 2 weeks 25° C., 60% relative humidity
[5] = 2 weeks 40° C., 75% relative humidity
[6] = 2 months 40° C. (75% relative humidity stated in examples 12, 14)
[7] = 3 months 40° C. (75% relative humidity stated in examples 12, 14)
[8] = 1 month 40° C. (75% relative humidity stated in examples 12, 14)

Row | SMILES | HPLC peak area, relative retention time 0.87 (retention time 23.58 min) [2, 6] | HPLC peak area, relative retention time 1.037 (retention time 28.00 min) [2, 6] | HPLC peak area, relative retention time 1.07 (retention time 28.77 min) [2, 6] | HPLC purity, peak at relative retention time 1.00 (retention time 27.00 min) [2, 6] | HPLC peak area, relative retention time 0.87 (retention time 23.58 min) [2, 7] | HPLC peak area, relative retention time 0.95 (retention time 25.78 min) [2, 7] | HPLC peak area, relative retention time 1.037 (retention time 28.00 min) [2, 7] | HPLC purity, peak at relative retention time 1.00 (retention time 27.00 min) [2, 7] | HPLC peak area, relative retention time 1.037 (retention time 28.00 min) ([2]; t0) | HPLC purity, peak at relative retention time 1.00 (retention time 27.00 min) ([2]; t0) | also measured
1 | CC(C)C[C@H](NC(=O)C(Cc1ccccc1)NC(=O)c1cnccn1)B1OC(=O)C(C2OB([C@H](CC(C)C)NC(=O)C(Cc3ccccc3)NC(=O)c3cnccn3)OC2=O)O1 (stereo partly drawn) [Example 2, (5+5) Bis-Bortezomib L-Tartrate III] |  |  |  |  |  |  |  |  |  |  | HPLC peak area, relative retention time 0.91 (retention time 24.57 min) [1, 4]: 0.02 A%; HPLC peak area, relative retention time 0.95 (retention time 25.78 min) [1, 4]: 0.02 A%; HPLC peak area, relative retention time 1.07 (retention time 28.77 min) [1, 4]: 0.01 A%; HPLC purity, peak at relative retention time 1.00 (retention time 27.00 min) [1, 4]: 99.94 A%; HPLC peak area, relative retention time 0.95 (retention time 25.78 min) [1, 5]: 0.18 A%; HPLC peak area, relative retention time 1.07 (retention time 28.77 min) [1, 5]: 0.01 A%; HPLC purity, peak at relative retention time 1.00 (retention time 27.00 min) [1, 5]: 99.82 A%; HPLC peak area, relative retention time 0.91 (retention time 24.57 min) ([1]; t0): 0.02 A%; HPLC peak area, relative retention time 0.95 (retention time 25.78 min) ([1]; t0): 0.07 A%; HPLC peak area, relative retention time 1.07 (retention time 28.77 min) ([1]; t0): 0.01 A%; HPLC purity, peak at relative retention time 1.00 (retention time 27.00 min) ([1]; t0): 99.90 A%
2 | CC(C)C[C@H](NC(=O)C(Cc1ccccc1)NC(=O)c1cnccn1)B1OC(=O)C(C2OB([C@H](CC(C)C)NC(=O)C(Cc3ccccc3)NC(=O)c3cnccn3)OC2=O)O1 (stereo partly drawn) [Example 11, (5+5) Bis Bortezomib L-Tartrate III] | 0.15 A% | 0.02 A% | 0.04 A% | 99.67 A% | 0.66 A% | 0.07 A% | 0.38 A% | 98.72 A% | 0.01 A% | 99.99 A% | HPLC peak area, relative retention time 1.07 (retention time 28.77 min) [2, 7]: 0.18 A%
3 | CC(C)C[C@H](NC(=O)[C@H](Cc1ccccc1)NC(=O)c1cnccn1)B1OC(=O)[C@@H]([C@H]2OB([C@H](CC(C)C)NC(=O)[C@H](Cc3ccccc3)NC(=O)c3cnccn3)OC2=O)O1 [Example 13, (5+5) Bis Bortezomib L-Tartrate III] | 0.61 A% | 0.34 A% | 0.13 A% | 98.85 A% | 0.07 A% | 0.04 A% | 0.02 A% | 99.85 A% | 0.02 A% | 99.94 A% | HPLC peak area, relative retention time 0.87 (retention time 23.58 min) [2, 8]: 0.05 A%; HPLC peak area, relative retention time 1.037 (retention time 28.00 min) [2, 8]: 0.02 A%; HPLC purity, peak at relative retention time 1.00 (retention time 27.00 min) [2, 8]: 99.93 A%; HPLC peak area, relative retention time 0.95 (retention time 25.78 min) [2, 6]: 0.07 A%; HPLC peak area, relative retention time 0.87 (retention time 23.58 min) ([2]; t0): 0.02 A%
4 | CC(C)C[C@H](NC(=O)[C@H](Cc1ccccc1)NC(=O)c1cnccn1)B(O)O [bortezomib] |  |  |  |  |  |  |  |  |  |  | time for which stable on storage ([3]; stored at 2-8° C.): 3-6 months; HPLC purity ([3]; stored at −20° C. for more than 2 years): > 97%; time for which stable on storage ([3]; stored at −20° C.): more than 2 years
